# Test results from patent US6989153B2, “Radiation sensitive liposomes” (Varian Medical Systems Technologies, Inc., priority 1999, dated 2006).
# Test: Ionizing radiation initiated polymerization of liposomes, by loss of monomer absorption intensity
# Assay type: physicochemical
# Conditions: for dependence of extent of polymerization on continuous or discontinuous exposure: ionizing radiation; for effect of dissolved oxygen on ionizing radiation initiated polymerization: liposomes in aqueous buffer, maximum dose rate 2.1×10^4 rad/h
# Description: The relative sensitivity to ionizing radiation of liposomes composed of either bis-SorbPC (1; FIG. 5), bis-DenPC (2; FIG. 5), or bis-AcrylPC (3; FIG. 5) was investigated. These polymerizable colipids have different reactivities that control the initial rate of polymerization, extent of polymerization, and inhibition by oxygen. The interaction of ionizing radiation with water produces radical species that can initiate radical chain polymerizations.
# The rate of the ionizing radiation initiated polymerization (Rp) of liposomes composed of either bis-SorbPC, bis-DenPC, or bis-AcrylPC was determined by the loss of monomer absorption intensity. The maximum dose rate at the liposome samples was 2.1×10^4 rad/h. This intensity could be attenuated if desired. […] Radical polymerization of acryloyl functionalities are very sensitive to oxygen due to the high energy of the propagating species. In contrast, if the bis-AcrylPC liposome suspension was purged of oxygen the monomer could be converted to polymer in a few minutes. The Rp for bis-SorbPC liposomes in water (with or without oxygen present) was about twice that of bis-DenPC liposomes. The liposomes composed of bis-AcrylPC (without oxygen) were about 10 times more reactive than bis-SorbPC liposomes.
# The usual experimental protocol for radiation exposure of the liposome samples utilized discontinuous exposure because samples for all the time points were exposed together. […] In some experiments the samples were exposed continuously. The percent loss of monomer depended on the total exposure, but was insensitive to whether the radiation was delivered in a continuous or punctuated manner.
molecule,measurement,setting,value
CC=CC=CC(=O)OCCCCCCCCCC(=O)OC[C@H](COP(=O)([O-])OCC[N+](C)(C)C)OC(=O)CCCCCCCCCOC(=O)C=CC=CC [bis-SorbPC],dependence of extent of polymerization on continuous or discontinuous exposure,,independent of whether the exposure to ionizing radiation was continuous or discontinuous
same,effect of dissolved oxygen on ionizing radiation initiated polymerization,,relatively insensitive to the presence of dissolved oxygen
same,rate of polymerization (Rp) relative to bis-DenPC liposomes,"liposomes in water, with or without oxygen present",about twice
bis-AcrylPC,dependence of extent of polymerization on continuous or discontinuous exposure,,independent of whether the exposure to ionizing radiation was continuous or discontinuous
same,time for conversion of monomer to polymer,liposome suspension purged of oxygen,a few minutes
same,effect of dissolved oxygen on ionizing radiation initiated polymerization,,inhibited by oxygen
same,change in monomer concentration,"oxygen present, after 120 minutes of irradiation at the maximum dose rate",no change in the monomer concentration
same,reactivity relative to bis-SorbPC liposomes,without oxygen,about 10 times
bis-DenPC,effect of dissolved oxygen on ionizing radiation initiated polymerization,,relatively insensitive to the presence of dissolved oxygen
